From article PMC12114895, “Lanthanides-Based Nanoparticles Conjugated with Rose Bengal for FRET-Mediated X-Ray-Induced PDT” (Pharmaceuticals, 2025)
Entries after “also recorded” stand apart in the source; their conditions may differ. Read-outs that look alike come from different tables or passages of the source.

What was measured:
RB fluorescence lifetime = type: physicochemical; conditions: D2O, λexc = 470 nm
Description: The Ln luminescence lifetime is recorded after excitation at 545 nm for Tb and 313 nm for Gd. The fluorescence lifetime of RB is recorded after excitation at 470 nm ( τf470 ). ^1O2 emission spectra are obtained after excitation at 558 nm (maximum absorption wavelength of RB) but also after excitation at 351 nm for Tb and 273 nm for Gd.
(§1) Absorption spectra were recorded on a UV-3600 UV–visible double beam spectrophotometer (Shimadzu, Marne-La-Vallée, France). Fluorescence spectra were recorded on a Fluorolog FL3-222 spectrofluorimeter (Horiba Jobin Yvon, Palaiseau, France) equipped with a 450 W Xenon lamp and thermostated cell compartment (25 °C), a UV–visible photomultiplier R928 (Hamamatsu Photonics, Hamamatsu, Japan) and an InGaAs infrared detector (DSS-16A020L Electro-Optical System Inc, Phoenixville, PA, USA). The excitation beam was diffracted by a double ruled grating SPEX monochromator (1200 grooves/mm blazed at 330 nm). The emission beam was diffracted by a double ruled grating SPEX monochromator (1200 grooves/mm blazed at 500 nm). Singlet oxygen emission was detected through a double ruled grating SPEX monochromator (600 grooves/mm blazed at 1 µm) and a long-wave pass (780 nm). All spectra were measured in four-face quartz vials.

[1] = Singlet oxygen production quantum yield; type: physicochemical; conditions: D2O, reference Eosin Y; for ^1O2 quantum yield ΦΔ558: λexc = 558 nm
[2] = Fluorescence quantum yield; type: physicochemical; conditions: D2O, λexc = 558 nm; reference tetraphenylporphyrin
Description: as §1
The fluorescence quantum yield (Φf) is calculated using Equation (6).(6) Φf=Φf0 . If/If0.OD0/OD. (n/n0)^2 where Φf and Φf0, If and If0, OD and OD0, n and n0 are the quantum yields, fluorescence intensities, optical densities, and refractive indices of the sample and reference, respectively.
Tetraphenylporphyrin (TPP) was chosen as the fluorescence reference standard (Φf0 = 0.11, toluene).

[3] = in ethanol; cited from earlier work
Text: RB is a xanthene PS [22] derived from fluorescein (Figure 1a) with interesting photophysical and sonosensitive properties. For example, Nonaka et al. used sonodynamic therapy (SDT) with RB and focused ultra-sound to treat experimental intracranial glioma in rats. […] RB photoactivation can be used for external application on the body, such as wound sealing or ...

NRP-1 [4] = biological target: T1, NRP-1 (Homo sapiens, UniProt O14786); assay: NRP-1 binding, competitive assay; conditions: conjugated via maleimide on AGuIX NPs
Description: The affinity of AGuIX Ln@Mal-K(RB) and AGuIX Ln@Mal-K(RB)DKPPR to NRP-1 was determined as previously described in terms of IC50 in another study.

NRP-1 [5] = biological target: T1, NRP-1; conditions: peptide alone, cited from earlier work
Description: In the nano AGuIX platform tested, firstly, DOTA was chelated with Gd or Tb, and secondly, a targeted peptide recognizing neuropilin 1 (NRP-1) coupled to RB (i.e., K(RB)DKPPR) was conjugated to the surface of AGuIX NPs. […] In K(RB)DKPPR, conjugation via a maleimide function enhanced the affinity constant to the order of nM. Finally, NPs were tested in vitro on U-251 MG cells, derived from a human glioblastoma multiforme, using an anchorage-dependent clonogenic assay. […] An increase in SOSG fluorescence signal was observed confirming ^1O2 production, which was inhibited by the addition of NaN3 in the reaction mixture (Figure 11).

Zeta potential = type: physicochemical; conditions: DLS, Zetasizer Nano-Z, He-Ne 633 nm; pH 7.2 mentioned; listed as AGuIX Ln@Mal-K(RB)DKPPR (Ln = Gd)
Description: The zeta potential (ξ) for each NPs was determined using Zetasizer Nano-Z (Malvern, UK) equipped with a He-Ne laser at 633 nm.

[6] = Hydrodynamic size by TDA-ICP-MS; type: physicochemical; conditions: Table 4, listed as AGuIX Ln@Mal-K(RB)DKPPR (Ln = Gd)
Description: TDA experiments were conducted using a TDA-ICP-MS hyphenation between a Sciex P/ACE MDQ instrument and a 7700 Agilent ICP-MS. Fused silica capillaries with an inner diameter of 75 µm and outer diameter of 375 µm, and a total length of 64 cm, were coated with hydroxypropylcellulose (HPC) using a solution of 0.05 g mL^−1 in water. Detection was carried out by ICP-MS at m/z = 158 and m/z = 159 for Gd and Tb detection, respectively. Samples were hydrodynamically injected (0.3psi for 3 s), then mobilized using Tris 10 mM and NaCl 125 mM at 0.7 psi. Between runs, the capillary was flushed at 5 psi for 5 min with the mobilization medium. All measurements were performed at least in duplicates.
The detected peak was fitted by a sum of Gaussian distributions using Origin 8.5 software, according to Equation (8).(8) St=∑i=12Ai/σi 2πexp−t−t0^2/2σi2 where t0 is the peak residence time, and […] are the area under the curve and the temporal variance associated with each species i, respectively.
Under these experimental conditions, the molecular diffusion coefficient D is given by(9) D=Rc2t0/24σ^2=2kBT/6πηDh where Rc is the capillary radius, kB is the Boltzmann constant, T is the temperature, η is the viscosity, and Dh is the hydrodynamic diameter of the solute.
Therefore, using Equation (9), the hydrodynamic diameters can be calculated from the temporal variances measured from the fitted Taylorgram.

Ln luminescence lifetime = type: physicochemical; conditions: D2O, λexc/λdetection = 273/313 nm
U-251 MG cells = assay: Anchorage-dependent clonogenic assay with X-ray irradiation; type: cell-based, human; conditions: [RB] = 1 µM, 24 h, X-ray 2 Gy (320 kV, 10 mA, 3 Gy/min), clones after 7 days; fraction of untreated non-irradiated cells; mean, triplicates from 3 experiments (n = 9)
[7] = listed as AGuIX Ln@Mal-K(RB)DKPPR (Ln = Gd)

T1 sequence (O14786 22-923): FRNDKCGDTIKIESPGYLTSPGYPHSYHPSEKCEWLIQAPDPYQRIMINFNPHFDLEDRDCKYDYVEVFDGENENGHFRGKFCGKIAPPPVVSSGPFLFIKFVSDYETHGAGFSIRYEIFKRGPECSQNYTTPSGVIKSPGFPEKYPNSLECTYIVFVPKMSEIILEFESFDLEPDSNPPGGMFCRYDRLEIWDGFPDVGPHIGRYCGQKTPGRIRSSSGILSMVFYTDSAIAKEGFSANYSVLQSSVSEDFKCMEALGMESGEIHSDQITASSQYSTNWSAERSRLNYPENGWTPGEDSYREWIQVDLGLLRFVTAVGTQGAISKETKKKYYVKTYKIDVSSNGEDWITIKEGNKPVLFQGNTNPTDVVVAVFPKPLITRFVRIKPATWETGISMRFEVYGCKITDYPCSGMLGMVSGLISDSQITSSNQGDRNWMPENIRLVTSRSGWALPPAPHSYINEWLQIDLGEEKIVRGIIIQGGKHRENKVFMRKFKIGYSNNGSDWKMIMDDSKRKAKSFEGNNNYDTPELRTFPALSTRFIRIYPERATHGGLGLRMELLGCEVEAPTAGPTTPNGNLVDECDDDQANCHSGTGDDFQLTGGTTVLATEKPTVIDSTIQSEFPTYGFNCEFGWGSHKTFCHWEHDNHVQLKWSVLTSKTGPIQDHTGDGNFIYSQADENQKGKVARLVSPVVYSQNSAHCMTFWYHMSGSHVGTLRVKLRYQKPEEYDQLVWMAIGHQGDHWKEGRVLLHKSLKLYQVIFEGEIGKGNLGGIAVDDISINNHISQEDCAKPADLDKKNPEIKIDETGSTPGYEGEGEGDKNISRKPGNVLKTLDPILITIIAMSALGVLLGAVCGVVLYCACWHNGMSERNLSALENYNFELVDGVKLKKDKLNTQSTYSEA

O=C1OC2(c3cc(I)c(O)c(I)c3Oc3c2cc(I)c(O)c3I)c2c(Cl)c(Cl)c(Cl)c(Cl)c21 [RB, Rose Bengal]
RB fluorescence lifetime τf470 (RB fluorescence lifetime): 0.63 ns
^1O2 quantum yield ΦΔ351(Tb) or ΦΔ273(Gd) ([1]; λexc = 351 nm or 273 nm (not told apart for RB)): 0.00
^1O2 quantum yield ΦΔ558 [1]: 0.67
Fluorescence quantum yield Φf558 [2]: 0.15
fluorescence quantum yield (Φf) [3]: 0.11
singlet oxygen quantum yield (ΦΔ) [3]: 0.68

K(RB)DKPPR [NRP-1-targeting peptide coupled to RB]
affinity for NRP-1 (NRP-1 [4]): order of nM; also recorded: affinity in the nM range

KDKPPR [NRP-1-targeting peptide]
affinity for NRP-1 (NRP-1 [5]; ref 37): affinity of the order of μM
affinity for NRP-1 (NRP-1 [5]; ref 40): micromolar affinity
binding affinity for NRP-1 (NRP-1 [5]; ref 41): around 1 μM

Mal-K(RB)DKPPR [AGuIX Gd@Mal-K(RB)DKPPR, Mal-K(RB)DKPPR conjugated to thiolated AGuIX Gd NPs by thiol-maleimide click chemistry]
Zeta potential (ζ) (Zeta potential): −10 mV
percentage of population P1 [6]: 95%
percentage of population P2 [6]: 5%
Size, population P1 ([6]; Tris 10 mM and NaCl 125 mM): 2.9 nm
Size, population P2 ([6]; Tris 10 mM and NaCl 125 mM): 14.0 nm
RB fluorescence lifetime τf470 (RB fluorescence lifetime; [7]): 3.8 ns
Ln luminescence lifetime τL (Gd) (Ln luminescence lifetime): 345 µs
^1O2 quantum yield ΦΔ273(Gd) ([1]; λexc = 273 nm): 0.35
^1O2 quantum yield ΦΔ558 [1, 7]: 0.67
Fluorescence quantum yield Φf558 [2]: 0.11
Cell survival (clonogenic capability relative to control) (U-251 MG cells): 0.63
